# Results reported in paper PMC4865847, “Putative histidine kinase inhibitors with antibacterial effect against multi-drug resistant clinical isolates identified by in vitro and in silico screens” (Scientific Reports, 2016).
# Values joined by “and” are separate entries in the source; they are usually repeats but may differ in a detail not shown here. Identical values can stand only once. Like-named read-outs stand apart in the source and are kept apart here. Marks after values point to notes of the source that are not given here.
# Key:
# [1] = molecular target: T1, E. coli PhoR (PhoR^E) (Escherichia coli, UniProt P08400); test: In vitro autophosphorylation kinase assay with γ-32P-ATP, PhoR^E; type: biochemical; conditions: for inhibition at 2000 µM: 2 mM, 30 sec, compared to negative control; for IC50: autophosphorylation, one time point (30 sec), 10% DMSO
# T1 construct: The catalytic portion (DHp and CA domain) of E. coli PhoR (PhoR^E); made in house; host or cells: E. coli RIL
# Procedure, shortened: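 Autophosphorylation, initiated with γ-32P-ATP (0.1 μCi/μl; 0.03–0.06 μM ATP final), quenched with SDS/EDTA sample buffer, resolved by SDS-PAGE and quantified by phosphor-imaging. ≈4 μM kinase, fragments up to 20 mM, pH 8.5 Tris buffer with Mg2+; DMSO-matched ligand-free controls.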
# [2] = system: Staphylococcus aureus; test: Antibacterial susceptibility testing (MIC/MBC), S. aureus; type: cell-based
# Method: (§1) Minimal inhibitory concentrations (MICs) were determined following a standard double-dilution method. […] For S. pneumoniae MICs were determined by adapting the standard double-dilution method to anaerobic conditions and of this microorganism (use of Todd Hewitt Yeast extract with 200 U/mL of catalase and continuous monitoring of growth).
# [3] = system: Staphylococcus epidermidis; test: Antibacterial susceptibility testing (MIC/MBC), S. epidermidis; type: cell-based
# Method: as §1
# [4] = system: Streptococcus suis; test: Antibacterial susceptibility testing (MIC), S. suis; type: cell-based; conditions: Streptococcus suis, read-out: MIC Streptococcus suis 3881/S10, strain 3881/S10
# Procedure, shortened: (§2)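 MICs were determined by standard double (two-fold) dilution and read as the lowest compound concentration with no visible growth. MBC was the lowest concentration giving no colonies on plating, or no growth on regrowth in fresh MH medium. For S. pneumoniae the method was adapted to anaerobic conditions in Todd Hewitt yeast extract with 200 U/mL catalase, with growth monitored continuously.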
# [5] = system: Streptococcus pneumoniae; test: Antibacterial susceptibility testing (MIC), S. pneumoniae; type: cell-based; conditions: strain 49619
# Method: Bacterial strains used in this study for antibacterial susceptibility testing (Table S5) were propagated using standard microbiological procedures. Minimal inhibitory concentrations (MICs) were determined following a standard double-dilution method. MICs were recorded as the lowest concentration of the compound where no visible growth was observed. After plating the dilutions around the MIC or growing them in fresh MH media, minimal bactericidal concentration (MBC) was recorded as the lowest concentration of the compound at which no colonies were formed or no growth was observed, respectively. For S. pneumoniae MICs were determined by adapting the standard double-dilution method to anaerobic conditions and of this microorganism (use of Todd Hewitt Yeast extract with 200 U/mL of catalase and continuous monitoring of growth).
# [6] = system: Acinetobacter baumannii; test: Antibacterial susceptibility testing (MIC), A. baumannii; type: cell-based
# Procedure, shortened: as §2
# [7] = system: Stenotrophomonas maltophilia; test: Antibacterial susceptibility testing (MIC), S. maltophilia; type: cell-based
# Procedure, shortened: as §2
# [8] = system: Klebsiella pneumoniae; test: Antibacterial susceptibility testing (MIC), K. pneumoniae; type: cell-based; conditions: for MIC: Klebsiella pneumoniae, ATCC700603, strain ATCC 700603; for MIC K. pneumoniae ATCC700603: strain ATCC 700603
# Procedure, shortened: as §2
# [9] = system: Pseudomonas aeruginosa; test: Antibacterial susceptibility testing (MIC), P. aeruginosa; type: cell-based; conditions: strain ATCC 27853; for MIC: Pseudomonas aeruginosa, ATCC27853
# Procedure, shortened: as §2
# [10] = Hemolysis assay; type: cell-based; conditions: human
# Method: Hemolytic activity against human erythrocytes taken from a healthy donor was measured as previously described. The hemolysis experiments were carried out in accordance with the guidelines of the United Arab Emirates University (UAEU) Research Ethics Review Board. All experimental protocols were approved by the Research Ethics Review Board of UAEU and informed consent was obtained from all donors.
# [11] = molecular target: T1, E. coli PhoR (PhoR^E); test: Aggregation analysis by native-PAGE, PhoR^E; conditions: 2 mM (S5 and S6 5 mM), 10% DMSO
# Method: (§3) E. coli PhoR and EnvZ, and S. aureus PhoR ([…], final concentration) were prepared in kinase buffer. […] DMSO in the assays was maintained to a final concentration 10% (v/v). After 30 min of incubation at room temperature Native polyacrylamide gel electrophoresis (Native-PAGE) loading buffer was added and samples loaded. Coomassie blue staining was used for protein visualization.
# [12] = molecular target: S. aureus PhoR (PhoR^S) (Staphylococcus aureus, UniProt Q2FXN7); test: Aggregation analysis by native-PAGE, PhoR^S; conditions: 2 mM (S5 and S6 5 mM), 10% DMSO
# Method: as §3
# [13] = Solubility in kinase buffer; type: physicochemical; conditions: kinase buffer in the presence of 10% DMSO
# [14] = Staphylococcus aureus, ATCC reference strain 25293, read-out: MIC S. aureus 25293
# [15] = Staphylococcus aureus, DSM20231, strain DSM 20231, read-out: MIC S. aureus DSM 20231
# [16] = Staphylococcus aureus, MRSA clinical isolate 127/08, read-out: MIC S. aureus 127/08
# [17] = Staphylococcus aureus, MRSA clinical isolate 145/08, read-out: MIC S. aureus 145/08
# [18] = Staphylococcus aureus, MRSA clinical isolate 274/08, read-out: MIC S. aureus 274/08
# [19] = Staphylococcus aureus, MRSA, MRSA clinical isolate S908, read-out: MIC S. aureus S908
# [20] = Staphylococcus aureus, MRSA, MRSA clinical isolate T4/6, read-out: MIC S. aureus T4/6
# [21] = Staphylococcus aureus, MRSA, MRSA clinical isolate V4180, read-out: MIC S. aureus V4180
# [22] = Staphylococcus aureus, MRSA, summary over susceptible MRSA clinical isolates, read-out: MICs for MRSA strains
# [23] = Staphylococcus epidermidis, DSM20044, strain DSM 20044, read-out: MIC S. epidermidis DSM 20044
# [24] = Staphylococcus epidermidis, clinical isolate T7/3, read-out: MIC S. epidermidis T7/3
# [25] = Staphylococcus epidermidis, clinical isolate T37/8, read-out: MIC S. epidermidis T37/8
# [26] = Staphylococcus epidermidis, clinical isolate T6119, read-out: MIC S. epidermidis T6119
# [27] = Staphylococcus epidermidis, strain RP62A (biofilm producer), read-out: MIC S. epidermidis RP62A
# [28] = Staphylococcus epidermidis, strain RP62A/1 (non-biofilm producer), read-out: MIC S. epidermidis RP62A/1
# [29] = MDR clinical isolate NM8, read-out: MIC A. baumannii NM8
# [30] = MDR clinical isolate NM35, read-out: MIC A. baumannii NM35
# [31] = MDR clinical isolate NM75, read-out: MIC A. baumannii NM75
# [32] = MDR clinical isolate NM109, read-out: MIC A. baumannii NM109
# [33] = MDR clinical isolate NM124, read-out: MIC A. baumannii NM124
# [34] = clinical isolate B5/5, read-out: MIC S. maltophilia B5/5
# [35] = clinical isolate B6/2, read-out: MIC S. maltophilia B6/2
# [36] = clinical isolate B32/1, read-out: MIC S. maltophilia B32/1
# T1 sequence (P08400 210-425): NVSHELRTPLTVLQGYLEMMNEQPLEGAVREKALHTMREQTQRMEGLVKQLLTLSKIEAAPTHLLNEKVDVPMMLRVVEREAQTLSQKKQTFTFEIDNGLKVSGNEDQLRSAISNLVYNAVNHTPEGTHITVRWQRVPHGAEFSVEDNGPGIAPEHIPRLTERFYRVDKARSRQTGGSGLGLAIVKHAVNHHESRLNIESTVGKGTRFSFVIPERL
# Sequence of S. aureus PhoR (PhoR^S) (Q2FXN7 entry or part of it): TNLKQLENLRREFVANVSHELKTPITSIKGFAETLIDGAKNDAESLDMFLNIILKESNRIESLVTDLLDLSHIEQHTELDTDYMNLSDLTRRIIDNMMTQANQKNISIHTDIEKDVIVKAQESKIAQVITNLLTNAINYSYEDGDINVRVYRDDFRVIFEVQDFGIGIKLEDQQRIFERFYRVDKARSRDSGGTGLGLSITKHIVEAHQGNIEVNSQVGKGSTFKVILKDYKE
structure (smiles),measurement,setting,value
"CC(=O)Nc1cccc(-c2ccccc2Cl)c1 [S1.7, N-[3-(2-chlorophenyl)phenyl]acetamide]",inhibition at 2000 µM,[1],> 40%
same,IC50,[1]; IC50 PhoR^E,100 µM and ~100 µM
same,MIC,[2]; [14],125 µg/mL
same,MIC,[2]; [15],250 µg/mL
same,MIC,[2]; [16],> 500 µg/mL
same,MIC,[2]; [17],> 500 µg/mL
same,MIC,[2]; [18],250 µg/mL
same,MIC,[2]; [19],> 500 µg/mL
same,MIC,[2]; [20],250 µg/mL
same,MIC,[2]; [21],> 500 µg/mL
same,MIC,[2]; [22],≥ 250 µg/mL
same,MIC S. aureus DSM 20231,[2]; strain DSM 20231,250^# μg/ml
same,bacteriostatic or bactericidal for S. aureus DSM 20231,[2]; strain DSM 20231,bacteriostatic
same,MIC,[3]; [23],> 500 µg/mL
same,MIC,[3]; [24],> 500 µg/mL
same,MIC,[3]; [25],> 500 µg/mL
same,MIC,[3]; [26],> 500 µg/mL
same,MIC,[3]; [27],> 500 µg/mL
same,MIC,[3]; [28],> 500 µg/mL
same,MIC,[4],> 500 µg/mL
same,MIC,[5],128 µg/mL
same,MIC,[6]; [29],> 500 µg/mL
same,MIC,[6]; [30],> 500 µg/mL
same,MIC,[6]; [31],> 500 µg/mL
same,MIC,[6]; [32],> 500 µg/mL
same,MIC,[6]; [33],> 500 µg/mL
same,MIC,[7]; [34],> 500 µg/mL
same,MIC,[7]; [35],> 500 µg/mL
same,MIC,[7]; [36],> 500 µg/mL
same,MIC,[8],> 500 µg/mL
same,MIC K. pneumoniae ATCC700603,[8],>500 µg/mL
same,MIC,[9],> 500 µg/mL
same,MIC P. aeruginosa ATCC 27853,[9],>500 µg/mL
same,HC50,[10],> 500 µg/mL
same,"HK aggregation, PhoR^E",[11],do not cause HK aggregation
same,"HK aggregation, PhoR^S",[12],do not cause HK aggregation
same,solubility,"[13]; kinase buffer with 10% DMSO, pH 8.5, aqueous with cosolvent or surfactant or cyclodextrin, kinetic from dmso stock, read-out: concentration above which not soluble / reduced solubility in kinase buffer",≤ 1000 µM
"CC[C@H](c1ccc(O)cc1)[C@@H](CC)c1ccc(F)cc1 [S1.13, 4-[(3S,4R)-4-(4-fluorophenyl)hexan-3-yl]phenol]",inhibition at 2000 µM,[1],> 75%
same,IC50,[1]; read-out: IC50 PhoR^E,16 µM
same,MIC,[2]; [14],8 µg/mL
same,MBC,"[2]; Staphylococcus aureus, DSM20231, strain DSM 20231, read-out: MBC S. aureus DSM 20231",33 µg/mL
same,MIC,[2]; [15],8 µg/mL
same,MIC,[2]; [16],16 µg/mL
same,MIC,[2]; [17],8 µg/mL
same,MIC,[2]; [18],16 µg/mL
same,MIC,[2]; [19],16 µg/mL
same,MIC,[2]; [20],8 µg/mL
same,MIC,[2]; [21],8 µg/mL
same,MIC,"[2]; Staphylococcus aureus, MRSA, summary over strains, read-out: MICs for the S. aureus reference strains and the MRSA strains",8 to 16 µg/mL
same,MIC,[2]; [22],8 to 16 µg/mL
same,MBC S. aureus DSM 20231,[2]; strain DSM 20231,31 µg/mL
same,MIC S. aureus DSM 20231,[2]; strain DSM 20231,8^¥ μg/ml
same,bacteriostatic or bactericidal for S. aureus DSM 20231,[2]; strain DSM 20231,bactericidal
same,MBC,"[3]; Staphylococcus epidermidis, DSM20044, strain DSM 20044",8 µg/mL
same,MIC,[3]; [23],1 µg/mL
same,MIC,[3]; [24],8 µg/mL
same,MIC,[3]; [25],16 µg/mL
same,MIC,[3]; [26],8 µg/mL
same,MIC,[3]; [27],8 µg/mL
same,MIC,[3]; [28],8 µg/mL
same,MIC,"[3]; Staphylococcus epidermidis, summary over clinical isolates, read-out: MICs for S. epidermidis clinical isolates",8 to 16 µg/mL
same,MIC S. epidermidis DSM 20044,[3]; strain DSM 20044,1^¥ μg/ml
same,bacteriostatic or bactericidal for S. epidermidis DSM 20044,[3]; strain DSM 20044,bactericidal
same,MIC,[4],8 µg/mL
same,MIC,[5],16 µg/mL
same,MIC,[6]; [29],> 500 µg/mL
same,MIC,[6]; [30],> 500 µg/mL
same,MIC,[6]; [31],> 500 µg/mL
same,MIC,[6]; [32],> 500 µg/mL
same,MIC,[6]; [33],> 500 µg/mL
same,MIC,[7]; [34],> 500 µg/mL
same,MIC,[7]; [35],> 500 µg/mL
same,MIC,[7]; [36],> 500 µg/mL
same,MIC,[8],> 500 µg/mL
same,MIC K. pneumoniae ATCC700603,[8],>500 µg/mL
same,MIC,[9],> 500 µg/mL
same,MIC P. aeruginosa ATCC 27853,[9],>500 µg/mL
same,HC50,[10],277 µg/mL
same,"HK aggregation, PhoR^E",[11],do not cause HK aggregation
same,"HK aggregation, PhoR^S",[12],do not cause HK aggregation
same,solubility in kinase buffer,[13],good solubility
